Test results as given in patent US11000033B2, “Ketone or oxime compound, and herbicide” (NISSAN CHEMICAL CORPORATION, priority 2014, dated 2021).

Key:
Assay type in all cases: in vivo
Alopecurus myosuroides [1] = test: Test Example 4: herbicidal effect by soil treatment (symbol J); details: for J: Alopecurus myosuroides, herbicidal effect grade: 320 g/ha
Method in brief: (§1)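 Seeds were sown in sterilized diluvial soil, covered with about 1.5 cm of soil, and the soil surface was sprayed with a water-diluted emulsion of the compound at a predetermined rate. Plants grew in a greenhouse at 25° C. to 30° C.; effects were scored visually 3 weeks after application.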

[2] = system: Echinochloa crus-galli var. crus-galli; test: Test Example 3: herbicidal effect by foliage application, Wagner pot (symbol H); details: application herbicide amount 320 g/ha
Method in brief: (§2)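 Foliar spray of water-diluted emulsion formulation at a predetermined herbicide amount onto 14-day-old plants in flooded alluvial soil (water depth 0.1–0.5 cm), greenhouse 25–30 °C; rice sown alongside. Scored 3 wk post-application on set criteria.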

[3] = system: Echinochloa oryzacola Vasing.; test: Test Example 2: herbicidal activity, application during weed generation in submerged conditions (symbol A); details: Table 23; application herbicide amount 320 g/ha; grade 0-5 by criteria of Test Example 1
Method in brief: (§3)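 Paddy pot test, submerged (4 cm water), alluvial soil, mixed sowing; greenhouse 25–30° C. Emulsion formulation diluted to predetermined rate, applied onto floodwater at 1–2 leaf stage. Visual herbicidal rating at 3 wk post-treatment.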

Avena fatua = test: Test Example 4: herbicidal effect by soil treatment (symbol I); details: for I: Avena fatua, herbicidal effect grade: 320 g/ha
Method in brief: as §1

Alopecurus myosuroides [4] = test: Test Example 5: herbicidal effect by foliage application, plastic box (symbol J); details: 320 g/ha, 3 weeks after application
Method in brief: (§4)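 Effect is rated 3 weeks after a foliar spray of water-diluted emulsion concentrate at a predetermined herbicide amount. Plants had grown 14 days in a 25° C. to 30° C. greenhouse from seed in sterilized diluvial soil.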

Veronica persica = test: Test Example 4: herbicidal effect by soil treatment (symbol R); details: for R: Veronica persica, herbicidal effect grade: 320 g/ha
Method in brief: as §1

Apera spica-venti [5] = test: Test Example 4: herbicidal effect by soil treatment (symbol L); details: for L: Apera spica-venti, herbicidal effect grade: 320 g/ha
Method in brief: as §1

rapeseed = test: Test Example 5: effect on crop by foliage application, plastic box (symbol g); details: 320 g/ha, 3 weeks after application
Method in brief: (§5)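 Sterilized diluvial soil, plastic box (21 × 13 × 7 cm); spot sowing, ~1.5 cm soil cover; greenhouse 25–30° C.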

Abutilon theophrasti = test: Test Example 4: herbicidal effect by soil treatment (symbol M); details: for M: Abutilon theophrasti, herbicidal effect grade: 320 g/ha
Method in brief: as §1

Scirpus juncoides [6] = test: Test Example 2: herbicidal activity, application during weed generation in submerged conditions (symbol B); details: Table 23; application herbicide amount 320 g/ha; grade 0-5 by criteria of Test Example 1
Method in brief: as §3

Scirpus juncoides [7] = test: Test Example 1: herbicidal activity, application before weed generation in submerged conditions (symbol B); details: application herbicide amount 320 g/ha
Method in brief: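 Paddy pre-emergence test. Formulated emulsion, water-diluted to a predetermined rate, is applied to floodwater on sowing day; rice transplanted at 2.5 leaves. Effect read at 3 weeks on a 0–5 herbicidal-ratio scale.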

Chenopodium album = test: Test Example 4: herbicidal effect by soil treatment (symbol O); details: for O: Chenopodium album, herbicidal effect grade: 320 g/ha
Method in brief: as §1

corn = test: Test Example 5: effect on crop by foliage application, plastic box (symbol c); details: 320 g/ha, 3 weeks after application
Method in brief: as §5

Setaria viridis = test: Test Example 4: herbicidal effect by soil treatment (symbol G); details: for G: Setaria viridis, herbicidal effect grade: 320 g/ha
Method in brief: as §1

Cyperus difformis = test: Test Example 3: herbicidal effect by foliage application, Wagner pot (symbol E); details: application herbicide amount 320 g/ha
Method in brief: as §2

Apera spica-venti [8] = test: Test Example 5: herbicidal effect by foliage application, plastic box (symbol L); details: 320 g/ha, 3 weeks after application
Method in brief: as §4

[9] = application herbicide amount 320 g/ha

CON=C(CC1CC(O)=C(c2c(C)cc(-n3cc(Cl)cn3)cc2C)C1=O)C1CC1 (stereo not shown) [9-007]
Herbicidal effect grade, J: Alopecurus myosuroides (Alopecurus myosuroides [1]; [9]): 5 (Herbicidal ratio of 90% or more (almost completely withered))
H (Echinochloa crus-galli var. crus-galli) herbicidal effect grade ([2]; Table 24): 5 (Herbicidal ratio of 90% or more (almost completely withered))
Herbicidal effect grade, A: Echinochloa oryzacola Vasing. [3]: 5 (Herbicidal ratio of 90% or more (almost completely withered))
Herbicidal effect grade, I: Avena fatua (Avena fatua; [9]): 3 (Herbicidal ratio of 40% or higher and lower than 70%)
J: Alopecurus myosuroides, herbicidal effect grade (Alopecurus myosuroides [4]): 5 (Herbicidal ratio of 90% or more (almost completely withered))
Herbicidal effect grade, R: Veronica persica (Veronica persica; [9]): 0 (Herbicidal ratio of 5% or lower (almost no effect))
Herbicidal effect grade, L: Apera spica-venti (Apera spica-venti [5]; [9]): 5 (Herbicidal ratio of 90% or more (almost completely withered))
g: rapeseed, effect on crop grade (rapeseed): 4 (Herbicidal ratio of 70% or higher and lower than 90%)
Herbicidal effect grade, M: Abutilon theophrasti (Abutilon theophrasti; [9]): 0 (Herbicidal ratio of 5% or lower (almost no effect))
Herbicidal effect grade, B: Scirpus juncoides (Scirpus juncoides [6]): 4 (Herbicidal ratio of 70% or higher and lower than 90%)
B (Scirpus juncoides) herbicidal effect grade (Scirpus juncoides [7]): 4 (Herbicidal ratio of 70% or higher and lower than 90%)
Herbicidal effect grade, O: Chenopodium album (Chenopodium album; [9]): 0 (Herbicidal ratio of 5% or lower (almost no effect))
c: corn, effect on crop grade (corn): 5 (Herbicidal ratio of 90% or more (almost completely withered))
Herbicidal effect grade, G: Setaria viridis (Setaria viridis; [9]): 5 (Herbicidal ratio of 90% or more (almost completely withered))
E herbicidal effect grade (Cyperus difformis; Table 24): 5 (Herbicidal ratio of 90% or more (almost completely withered))
L: Apera spica-venti, herbicidal effect grade (Apera spica-venti [8]): 5 (Herbicidal ratio of 90% or more (almost completely withered))

CC(CC1CC(O)=C(c2c(C)cc(C)cc2C)C1=O)=NOCc1ccccc1C(F)(F)F (stereo not shown) [1-116]
J: Alopecurus myosuroides, herbicidal effect grade (Alopecurus myosuroides [1]): 4 (Herbicidal ratio of 70% or higher and lower than 90%)
herbicidal effect on H (Echinochloa crus-galli var. crus-galli), grade 0-5 [2]: 5 (Herbicidal ratio of 90% or more (almost completely withered))
Herbicidal effect grade, A: Echinochloa oryzacola Vasing. [3]: 2 (Herbicidal ratio of 20% or higher and lower than 40%)
I: Avena fatua, herbicidal effect grade (Avena fatua): 3 (Herbicidal ratio of 40% or higher and lower than 70%)
J: Alopecurus myosuroides, herbicidal effect (criteria 0-5) (Alopecurus myosuroides [4]): 5 (Herbicidal ratio of 90% or more (almost completely withered))
R: Veronica persica, herbicidal effect grade (Veronica persica): 0 (Herbicidal ratio of 5% or lower (almost no effect))
L: Apera spica-venti, herbicidal effect grade (Apera spica-venti [5]): 3 (Herbicidal ratio of 40% or higher and lower than 70%)
g: rapeseed, effect on crop (criteria 0-5) (rapeseed): 5 (Herbicidal ratio of 90% or more (almost completely withered))
M: Abutilon theophrasti, herbicidal effect grade (Abutilon theophrasti): 2 (Herbicidal ratio of 20% or higher and lower than 40%)
Herbicidal effect grade, B: Scirpus juncoides (Scirpus juncoides [6]): 3 (Herbicidal ratio of 40% or higher and lower than 70%)
Herbicidal effect grade, B: Scirpus juncoides (Scirpus juncoides [7]): 4 (Herbicidal ratio of 70% or higher and lower than 90%)
O: Chenopodium album, herbicidal effect grade (Chenopodium album): 0 (Herbicidal ratio of 5% or lower (almost no effect))
c: corn, effect on crop (criteria 0-5) (corn): 5 (Herbicidal ratio of 90% or more (almost completely withered))
G: Setaria viridis, herbicidal effect grade (Setaria viridis): 3 (Herbicidal ratio of 40% or higher and lower than 70%)
herbicidal effect on E, grade 0-5 (Cyperus difformis): 4 (Herbicidal ratio of 70% or higher and lower than 90%)
L: Apera spica-venti, herbicidal effect (criteria 0-5) (Apera spica-venti [8]): 5 (Herbicidal ratio of 90% or more (almost completely withered))

C=C(C)CN(CC)C(=O)OC1=C(c2c(C)cc(C)cc2C)C(=O)C(CC(C)=NOC)C1 (stereo not shown) [1-130]
J: Alopecurus myosuroides, herbicidal effect grade (Alopecurus myosuroides [1]): 3 (Herbicidal ratio of 40% or higher and lower than 70%)
herbicidal effect on H (Echinochloa crus-galli var. crus-galli), grade 0-5 [2]: 4 (Herbicidal ratio of 70% or higher and lower than 90%)
Herbicidal effect grade, A: Echinochloa oryzacola Vasing. [3]: 1 (Herbicidal ratio of 5% or higher and lower than 20%)
I: Avena fatua, herbicidal effect grade (Avena fatua): 0 (Herbicidal ratio of 5% or lower (almost no effect))
J: Alopecurus myosuroides, herbicidal effect (criteria 0-5) (Alopecurus myosuroides [4]): 5 (Herbicidal ratio of 90% or more (almost completely withered))
R: Veronica persica, herbicidal effect grade (Veronica persica): 0 (Herbicidal ratio of 5% or lower (almost no effect))
L: Apera spica-venti, herbicidal effect grade (Apera spica-venti [5]): 3 (Herbicidal ratio of 40% or higher and lower than 70%)
g: rapeseed, effect on crop (criteria 0-5) (rapeseed): 5 (Herbicidal ratio of 90% or more (almost completely withered))
M: Abutilon theophrasti, herbicidal effect grade (Abutilon theophrasti): 0 (Herbicidal ratio of 5% or lower (almost no effect))
Herbicidal effect grade, B: Scirpus juncoides (Scirpus juncoides [6]): 0 (Herbicidal ratio of 5% or lower (almost no effect))
Herbicidal effect grade, B: Scirpus juncoides (Scirpus juncoides [7]): 0 (Herbicidal ratio of 5% or lower (almost no effect))
O: Chenopodium album, herbicidal effect grade (Chenopodium album): 0 (Herbicidal ratio of 5% or lower (almost no effect))
c: corn, effect on crop (criteria 0-5) (corn): 1 (Herbicidal ratio of 5% or higher and lower than 20%)
G: Setaria viridis, herbicidal effect grade (Setaria viridis): 0 (Herbicidal ratio of 5% or lower (almost no effect))
herbicidal effect on E, grade 0-5 (Cyperus difformis): 4 (Herbicidal ratio of 70% or higher and lower than 90%)
L: Apera spica-venti, herbicidal effect (criteria 0-5) (Apera spica-venti [8]): 5 (Herbicidal ratio of 90% or more (almost completely withered))

CON=C(C)CON=C(C)CC1CC(O)=C(c2c(C)cc(C)cc2C)C1=O (stereo not shown) [1-105]
J: Alopecurus myosuroides, herbicidal effect grade (Alopecurus myosuroides [1]): 5 (Herbicidal ratio of 90% or more (almost completely withered))
herbicidal effect on H (Echinochloa crus-galli var. crus-galli), grade 0-5 [2]: 5 (Herbicidal ratio of 90% or more (almost completely withered))
Herbicidal effect grade, A: Echinochloa oryzacola Vasing. [3]: 5 (Herbicidal ratio of 90% or more (almost completely withered))
I: Avena fatua, herbicidal effect grade (Avena fatua): 1 (Herbicidal ratio of 5% or higher and lower than 20%)
J: Alopecurus myosuroides, herbicidal effect (criteria 0-5) (Alopecurus myosuroides [4]): 5 (Herbicidal ratio of 90% or more (almost completely withered))
R: Veronica persica, herbicidal effect grade (Veronica persica): 0 (Herbicidal ratio of 5% or lower (almost no effect))
L: Apera spica-venti, herbicidal effect grade (Apera spica-venti [5]): 5 (Herbicidal ratio of 90% or more (almost completely withered))
g: rapeseed, effect on crop (criteria 0-5) (rapeseed): 4 (Herbicidal ratio of 70% or higher and lower than 90%)
M: Abutilon theophrasti, herbicidal effect grade (Abutilon theophrasti): 1 (Herbicidal ratio of 5% or higher and lower than 20%)
Herbicidal effect grade, B: Scirpus juncoides (Scirpus juncoides [6]): 5 (Herbicidal ratio of 90% or more (almost completely withered))
Herbicidal effect grade, B: Scirpus juncoides (Scirpus juncoides [7]): 5 (Herbicidal ratio of 90% or more (almost completely withered))
O: Chenopodium album, herbicidal effect grade (Chenopodium album): 0 (Herbicidal ratio of 5% or lower (almost no effect))
c: corn, effect on crop (criteria 0-5) (corn): 4 (Herbicidal ratio of 70% or higher and lower than 90%)
G: Setaria viridis, herbicidal effect grade (Setaria viridis): 5 (Herbicidal ratio of 90% or more (almost completely withered))
herbicidal effect on E, grade 0-5 (Cyperus difformis): 5 (Herbicidal ratio of 90% or more (almost completely withered))
L: Apera spica-venti, herbicidal effect (criteria 0-5) (Apera spica-venti [8]): 5 (Herbicidal ratio of 90% or more (almost completely withered))
